For 13 molecules, IC50 results are on record in patent US20220389061A1, “IMMUNOMODULATORS” (priority 2019, published 2022).

Starred links: 1 amine or outer side, 2 acyl side, 3 side chain; linkers in the order of their positions; H or OH if unused. Positions of bridges follow the written chain, without caps; N, C: chain ends. Non-standard residues stand in square brackets, D forms with d. Residues, ends and D or L forms follow the SMILES beside them. Groups on a side chain read outwards from the residue. *: point of attachment. Trp(1-CH2COOH) = N[C@@H](Cc1cn(CC(=O)O)c2ccccc12)C(=O)O; X38 = N#Cc1c[nH]c2c(NC(=S)*)cccc12; X68 = CC1(C)CCC(C)(C)c2cc(N*)ccc21; X75 = S=C(Nc1ccc(C2CC2)c2ccccc12)*; Hyp = O=C(O)[C@@H]1C[C@@H](O)CN1; X33 = Cc1cc2ccc(NC(=S)*)cc2[nH]1; X35 = Cc1n[nH]c2c(NC(=S)*)cccc12; X70 = Cc1coc2c(F)cc(NC(=S)*)cc12; X91 = Cc1cc(NC(=S)*)c2ccccc2n1; X42 = S=C(Nc1ccc2nccnc2c1Br)*; NMeNle = CCCC[C@H](NC)C(=O)O; X16 = S=C(Nc1ccc2c(c1)OCO2)*; X7 = S=C(Nc1ccc2cc[nH]c2c1)*; X20 = O=C(Oc1ccc2ccccc2c1)*; NMeA = CN[C@@H](C)C(=O)O; X71 = c1cc2c(cc1N*)OCCO2; βNA = c1ccc2cc(N*)ccc2c1; Dab = NCC[C@H](N)C(=O)O; Dap = NC[C@H](N)C(=O)O; CO = O=C([*:1])[*:2]

The target of one assay is T1, PD-1/PD-L1 (Homo sapiens, UniProt Q9NZQ7).
T1 construct: TVMV protease site linker (C); made in house; host or cells: HEK293T cells
T1 sequence (Q9NZQ7 18-239): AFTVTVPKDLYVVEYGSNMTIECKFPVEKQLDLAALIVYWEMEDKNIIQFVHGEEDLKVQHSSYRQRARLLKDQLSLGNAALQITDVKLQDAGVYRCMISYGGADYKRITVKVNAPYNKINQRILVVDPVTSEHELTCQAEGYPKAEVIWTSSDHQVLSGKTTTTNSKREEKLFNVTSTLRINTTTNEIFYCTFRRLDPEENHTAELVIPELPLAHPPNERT
The assay can be described thus: PD-1/PD-L1 Homogenous Time-Resolved Fluorescence (HTRF) binding assay.
Conditions: not given
The method in brief: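 Compounds preincubated 15 min with PD-L1-His (10 nM final), then PD-1-Ig (20 nM final) added for 15 min in dPBS with 0.1% BSA, 0.05% Tween-20. Detection by Eu-cryptate anti-Ig (1 nM) and APC anti-His (20 nM) HTRF.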
`CCCC[C@H]1C(=O)N(C)[C@@H](CCCC)C(=O)N[C@@H](CC(C)C)C(=O)N[C@H](C(=O)NCC(N)=O)CSCC(=O)N[C@@H](Cc2ccc(O)cc2)C(=O)N(C)[C@@H](C)C(=O)N[C@@H](CC(N)=O)C(=O)N2CCC[C@H]2C(=O)N[C@@H](CNC(=O)Nc2ccc3ccccc3c2)C(=O)N[C@@H](CC(C)C)C(=O)N2C[C@H](O)C[C@H]2C(=O)N[C@@H](Cc2c[nH]c3ccccc23)C(=O)N[C@@H](CCN)C(=O)N[C@@H](Cc2cn(CC(=O)O)c3ccccc23)C(=O)N1C` [Example 3043] ({CH2CO}-Y[NMeA]NP[Dap]([CO-βNA])L[Hyp]W[Dab][Trp(1-CH2COOH)][NMeNle][NMeNle]LCG-NH2; thioether N-14): the IC50 (commonly the point on the concentration scale where inhibition reaches its midpoint) turned out to be 3.2 nM.

Take `CCCC[C@H]1C(=O)N(C)[C@@H](CCCC)C(=O)N[C@@H](CC(C)C)C(=O)N[C@H](C(=O)NCC(N)=O)CSCC(=O)N[C@@H](Cc2ccc(O)cc2)C(=O)N(C)[C@@H](C)C(=O)N[C@@H](CC(N)=O)C(=O)N2CCC[C@H]2C(=O)N[C@@H](CNC(=O)Oc2ccc3ccccc3c2)C(=O)N[C@@H](CC(C)C)C(=O)N2C[C@H](O)C[C@H]2C(=O)N[C@@H](Cc2c[nH]c3ccccc23)C(=O)N[C@@H](CCN)C(=O)N[C@@H](Cc2cn(CC(=O)O)c3ccccc23)C(=O)N1C` [Example 3045] ({CH2CO}-Y[NMeA]NP[Dap](X20)L[Hyp]W[Dab][Trp(1-CH2COOH)][NMeNle][NMeNle]LCG-NH2; thioether N-14): the IC50 was 1.3 nM.

Still in this assay, the particulars now being: PD-L1-His 10 nM pre-incubated with inhibitor, PD-1-Ig 20 nM; read-out: HTRF IC50.
Take `CCCC[C@H]1C(=O)N(C)[C@@H](CCCC)C(=O)N[C@@H](CC(C)C)C(=O)N[C@H](C(=O)NCC(N)=O)CSCC(=O)N[C@@H](Cc2ccc(O)cc2)C(=O)N(C)[C@@H](C)C(=O)N[C@@H](CC(N)=O)C(=O)N2CCC[C@H]2C(=O)N[C@@H](CNC(=O)Nc2ccc3c(c2)OCCO3)C(=O)N[C@@H](CC(C)C)C(=O)N2C[C@H](O)C[C@H]2C(=O)N[C@@H](Cc2c[nH]c3ccccc23)C(=O)N[C@@H](CCN)C(=O)N[C@@H](Cc2cn(CC(=O)O)c3ccccc23)C(=O)N1C` [Example 3042] ({CH2CO}-Y[NMeA]NP[Dap]([CO-X71])L[Hyp]W[Dab][Trp(1-CH2COOH)][NMeNle][NMeNle]LCG-NH2; thioether N-14): the IC50 came to 2.5 nM.

On to `CCCC[C@H]1C(=O)N(C)[C@@H](CCCC)C(=O)N[C@@H](CC(C)C)C(=O)N[C@H](C(=O)NCC(N)=O)CSCC(=O)N[C@@H](Cc2ccc(O)cc2)C(=O)N(C)[C@@H](C)C(=O)N[C@@H](CC(N)=O)C(=O)N2CCC[C@H]2C(=O)N[C@@H](CNC(=S)Nc2ccc(C3CC3)c3ccccc23)C(=O)N[C@@H](CC(C)C)C(=O)N2C[C@H](O)C[C@H]2C(=O)N[C@@H](Cc2c[nH]c3ccccc23)C(=O)N[C@@H](CCN)C(=O)N[C@@H](Cc2cn(CC(=O)O)c3ccccc23)C(=O)N1C` [Example 3044] ({CH2CO}-Y[NMeA]NP[Dap](X75)L[Hyp]W[Dab][Trp(1-CH2COOH)][NMeNle][NMeNle]LCG-NH2; thioether N-14), for which the IC50 was found to be 3 nM.

As for `CCCC[C@H]1C(=O)N(C)[C@@H](CCCC)C(=O)N[C@@H](CC(C)C)C(=O)N[C@H](C(=O)NCC(N)=O)CSCC(=O)N[C@@H](Cc2ccc(O)cc2)C(=O)N(C)[C@@H](C)C(=O)N[C@@H](CC(N)=O)C(=O)N2CCC[C@H]2C(=O)N[C@@H](CNC(=O)Nc2ccc3c(c2)C(C)(C)CCC3(C)C)C(=O)N[C@@H](CC(C)C)C(=O)N2C[C@H](O)C[C@H]2C(=O)N[C@@H](Cc2c[nH]c3ccccc23)C(=O)N[C@@H](CCN)C(=O)N[C@@H](Cc2cn(CC(=O)O)c3ccccc23)C(=O)N1C` [Example 3046] ({CH2CO}-Y[NMeA]NP[Dap]([CO-X68])L[Hyp]W[Dab][Trp(1-CH2COOH)][NMeNle][NMeNle]LCG-NH2; thioether N-14), the IC50 worked out at 3.3 nM.

Consider `CCCC[C@H]1C(=O)N(C)[C@@H](CCCC)C(=O)N[C@@H](CC(C)C)C(=O)N[C@H](C(=O)NCC(N)=O)CSCC(=O)N[C@@H](Cc2ccc(O)cc2)C(=O)N(C)[C@@H](C)C(=O)N[C@@H](CC(N)=O)C(=O)N2CCC[C@H]2C(=O)N[C@@H](CNC(=S)Nc2ccc3nccnc3c2Br)C(=O)N[C@@H](CC(C)C)C(=O)N2C[C@H](O)C[C@H]2C(=O)N[C@@H](Cc2c[nH]c3ccccc23)C(=O)N[C@@H](CCN)C(=O)N[C@@H](Cc2cn(CC(=O)O)c3ccccc23)C(=O)N1C` [Example 3047] ({CH2CO}-Y[NMeA]NP[Dap](X42)L[Hyp]W[Dab][Trp(1-CH2COOH)][NMeNle][NMeNle]LCG-NH2; thioether N-14), for which the IC50 came to 5.8 nM.

In the case of `CCCC[C@H]1C(=O)N(C)[C@@H](CCCC)C(=O)N[C@@H](CC(C)C)C(=O)N[C@H](C(=O)NCC(N)=O)CSCC(=O)N[C@@H](Cc2ccc(O)cc2)C(=O)N(C)[C@@H](C)C(=O)N[C@@H](CC(N)=O)C(=O)N2CCC[C@H]2C(=O)N[C@@H](CNC(=S)Nc2ccc3cc(C)[nH]c3c2)C(=O)N[C@@H](CC(C)C)C(=O)N2C[C@H](O)C[C@H]2C(=O)N[C@@H](Cc2c[nH]c3ccccc23)C(=O)N[C@@H](CCN)C(=O)N[C@@H](Cc2cn(CC(=O)O)c3ccccc23)C(=O)N1C` [Example 3048] ({CH2CO}-Y[NMeA]NP[Dap](X33)L[Hyp]W[Dab][Trp(1-CH2COOH)][NMeNle][NMeNle]LCG-NH2; thioether N-14), the IC50 stood at 3 nM.

Turning to `CCCC[C@H]1C(=O)N(C)[C@@H](CCCC)C(=O)N[C@@H](CC(C)C)C(=O)N[C@H](C(=O)NCC(N)=O)CSCC(=O)N[C@@H](Cc2ccc(O)cc2)C(=O)N(C)[C@@H](C)C(=O)N[C@@H](CC(N)=O)C(=O)N2CCC[C@H]2C(=O)N[C@@H](CNC(=S)Nc2ccc3cc[nH]c3c2)C(=O)N[C@@H](CC(C)C)C(=O)N2C[C@H](O)C[C@H]2C(=O)N[C@@H](Cc2c[nH]c3ccccc23)C(=O)N[C@@H](CCN)C(=O)N[C@@H](Cc2cn(CC(=O)O)c3ccccc23)C(=O)N1C` [Example 3049] ({CH2CO}-Y[NMeA]NP[Dap](X7)L[Hyp]W[Dab][Trp(1-CH2COOH)][NMeNle][NMeNle]LCG-NH2; thioether N-14), the IC50 turned out to be 4.1 nM.

For the molecule `CCCC[C@H]1C(=O)N(C)[C@@H](CCCC)C(=O)N[C@@H](CC(C)C)C(=O)N[C@H](C(=O)NCC(N)=O)CSCC(=O)N[C@@H](Cc2ccc(O)cc2)C(=O)N(C)[C@@H](C)C(=O)N[C@@H](CC(N)=O)C(=O)N2CCC[C@H]2C(=O)N[C@@H](CNC(=S)Nc2ccc3c(c2)OCO3)C(=O)N[C@@H](CC(C)C)C(=O)N2C[C@H](O)C[C@H]2C(=O)N[C@@H](Cc2c[nH]c3ccccc23)C(=O)N[C@@H](CCNC(=S)Nc2ccc3c(c2)OCO3)C(=O)N[C@@H](Cc2cn(CC(=O)O)c3ccccc23)C(=O)N1C` [Example 3050] ({CH2CO}-Y[NMeA]NP[Dap](X16)L[Hyp]W[Dab](X16)[Trp(1-CH2COOH)][NMeNle][NMeNle]LCG-NH2; thioether N-14), the IC50 came to 2.7 nM.

In the case of `CCCC[C@H]1C(=O)N(C)[C@@H](CCCC)C(=O)N[C@@H](CC(C)C)C(=O)N[C@H](C(=O)NCC(N)=O)CSCC(=O)N[C@@H](Cc2ccc(O)cc2)C(=O)N(C)[C@@H](C)C(=O)N[C@@H](CC(N)=O)C(=O)N2CCC[C@H]2C(=O)N[C@@H](CNC(=S)Nc2cccc3c(C#N)c[nH]c23)C(=O)N[C@@H](CC(C)C)C(=O)N2C[C@H](O)C[C@H]2C(=O)N[C@@H](Cc2c[nH]c3ccccc23)C(=O)N[C@@H](CCNC(=S)Nc2cccc3c(C#N)c[nH]c23)C(=O)N[C@@H](Cc2cn(CC(=O)O)c3ccccc23)C(=O)N1C` [Example 3051] ({CH2CO}-Y[NMeA]NP[Dap](X38)L[Hyp]W[Dab](X38)[Trp(1-CH2COOH)][NMeNle][NMeNle]LCG-NH2; thioether N-14), the 50% inhibitory concentration (IC50) is 4.5 nM.

Regarding `CCCC[C@H]1C(=O)N(C)[C@@H](CCCC)C(=O)N[C@@H](CC(C)C)C(=O)N[C@H](C(=O)NCC(N)=O)CSCC(=O)N[C@@H](Cc2ccc(O)cc2)C(=O)N(C)[C@@H](C)C(=O)N[C@@H](CC(N)=O)C(=O)N2CCC[C@H]2C(=O)N[C@@H](CNC(=S)Nc2cccc3c(C)n[nH]c23)C(=O)N[C@@H](CC(C)C)C(=O)N2C[C@H](O)C[C@H]2C(=O)N[C@@H](Cc2c[nH]c3ccccc23)C(=O)N[C@@H](CCNC(=S)Nc2cccc3c(C)n[nH]c23)C(=O)N[C@@H](Cc2cn(CC(=O)O)c3ccccc23)C(=O)N1C` [Example 3052] ({CH2CO}-Y[NMeA]NP[Dap](X35)L[Hyp]W[Dab](X35)[Trp(1-CH2COOH)][NMeNle][NMeNle]LCG-NH2; thioether N-14), the IC50 was 3.9 nM.

`CCCC[C@H]1C(=O)N(C)[C@@H](CCCC)C(=O)N[C@@H](CC(C)C)C(=O)N[C@H](C(=O)NCC(N)=O)CSCC(=O)N[C@@H](Cc2ccc(O)cc2)C(=O)N(C)[C@@H](C)C(=O)N[C@@H](CC(N)=O)C(=O)N2CCC[C@H]2C(=O)N[C@@H](CNC(=S)Nc2cc(C)nc3ccccc23)C(=O)N[C@@H](CC(C)C)C(=O)N2C[C@H](O)C[C@H]2C(=O)N[C@@H](Cc2c[nH]c3ccccc23)C(=O)N[C@@H](CCN)C(=O)N[C@@H](Cc2cn(CC(=O)O)c3ccccc23)C(=O)N1C` [Example 3053] ({CH2CO}-Y[NMeA]NP[Dap](X91)L[Hyp]W[Dab][Trp(1-CH2COOH)][NMeNle][NMeNle]LCG-NH2; thioether N-14): the IC50 is 3.4 nM.

Consider `CCCC[C@H]1C(=O)N(C)[C@@H](CCCC)C(=O)N[C@@H](CC(C)C)C(=O)N[C@H](C(=O)NCC(N)=O)CSCC(=O)N[C@@H](Cc2ccc(O)cc2)C(=O)N(C)[C@@H](C)C(=O)N[C@@H](CC(N)=O)C(=O)N2CCC[C@H]2C(=O)N[C@@H](CNC(=S)Nc2cc(F)c3occ(C)c3c2)C(=O)N[C@@H](CC(C)C)C(=O)N2C[C@H](O)C[C@H]2C(=O)N[C@@H](Cc2c[nH]c3ccccc23)C(=O)N[C@@H](CCN)C(=O)N[C@@H](Cc2cn(CC(=O)O)c3ccccc23)C(=O)N1C` [Example 3054] ({CH2CO}-Y[NMeA]NP[Dap](X70)L[Hyp]W[Dab][Trp(1-CH2COOH)][NMeNle][NMeNle]LCG-NH2; thioether N-14), for which the IC50 turned out to be 1.3 nM.
